Measured values reported in ChEMBL document CHEMBL1156341, “Synthesis of new artemisinin analogues from artemisinic acid modified at C-3 and C-13 and their antimalarial activity” (J Nat Prod, 2001).
≈ marks a conversion by molar mass, not a printed value.

What was measured:
Plasmodium falciparum [1] = test: Antimalarial activity against chloroquine-resistant Plasmodium falciparum W2; type: functional, organism-based
Plasmodium falciparum [2] = test: Antimalarial activity against chloroquine-sensitive Plasmodium falciparum D6; type: functional, organism-based
[3] = Cytotoxicity against human vinblastine-resistant KBVIN cells in presence of vinblastine; type: functional, cell-based

Structure (SMILES) | IC50 (Plasmodium falciparum [1]) [ng/mL] | IC50 (Plasmodium falciparum [2]) [ng/mL] | IC50 [3] [ng/mL]
COC[C@H]1C(=O)O[C@@H]2O[C@@]3(C)CC[C@H]4[C@H](C)CC[C@@H]1[C@@]24OO3 | 59 (≈ 0.189 µM) | 75 (≈ 0.24 µM) | 
C[C@@H]1CC[C@H]2C(=C3CC3)C(=O)O[C@@H]3O[C@@]4(C)CC[C@@H]1[C@]32OO4 | 4.3 (≈ 0.014 µM) | 6.2 (≈ 0.0202 µM) | 
C[C@@H]1CC[C@H]2[C@@H](CC#N)C(=O)O[C@@H]3O[C@@]4(C)CC[C@@H]1[C@]32OO4 | 8.4 (≈ 0.0273 µM) | 18.4 (≈ 0.0599 µM) | 
C=C[C@H]1CN2CC[C@H]1C[C@H]2[C@H](O)c1ccnc2ccc(OC)cc12 [QUININE] | 102 (≈ 0.314 µM) | 19.6 (≈ 0.0604 µM) | 
OC(c1cc(C(F)(F)F)nc2c(C(F)(F)F)cccc12)C1CCCCN1 (centres undefined) [MEFLOQUINE] | 3.6 (≈ 0.00952 µM) |  | 
CCS(=O)(=O)C[C@H]1C(=O)O[C@@H]2O[C@@]3(C)CC[C@H]4[C@H](C)CC[C@@H]1[C@@]24OO3 | > 500 | > 500 | 
C[C@@H]1CC[C@H]2[C@@H](CC[N+](=O)[O-])C(=O)O[C@@H]3O[C@@]4(C)CC[C@@H]1[C@]32OO4 | 0.26 (≈ 0.000762 µM) | 0.68 (≈ 0.00199 µM) | 5.1
C[C@@H]1CC[C@H]2[C@@H](C)C(=O)O[C@@H]3O[C@@]4(C)CC[C@@H]1[C@]32OO4 [ARTEMISININ] | 0.2 (≈ 0.000708 µM) |  | 
COC(=O)C[C@H]1C(=O)O[C@@H]2O[C@@]3(C)CC[C@H]4[C@H](C)CC[C@@H]1[C@@]24OO3 | 33 (≈ 0.097 µM) | 46 (≈ 0.135 µM) | 
CC(=O)O[C@@H]1C[C@H]2[C@H](C)CC[C@H]3[C@@H](C)C(=O)O[C@@H]4O[C@]1(C)OO[C@]423 | 2.07 (≈ 0.00608 µM) | 11.1 (≈ 0.0326 µM) | 
